Reference: ChEMBL document CHEMBL1126722, “Potent nonpeptide angiotensin II receptor antagonists. 2. 1-(Carboxybenzyl)imidazole-5-acrylic acids” (J Med Chem, 1993)

Assays:
[1] = molecular target: Angiotensin II receptor (Rattus norvegicus) (UniProt P29089+P25095+P35351); experiment: In vivo inhibition of pressor response to angiotensin II in conscious normotensive rats; type: functional, organism-based
Angiotensin II receptor = molecular target: T1, Angiotensin II receptor (Rattus norvegicus, UniProt P29089+P25095+P35351); experiment: Inhibition of [125I]AII binding to Angiotensin II receptor, type 1 of rat mesenteric arteries; type: protein assay
T1 sequence (P29089 whole entry): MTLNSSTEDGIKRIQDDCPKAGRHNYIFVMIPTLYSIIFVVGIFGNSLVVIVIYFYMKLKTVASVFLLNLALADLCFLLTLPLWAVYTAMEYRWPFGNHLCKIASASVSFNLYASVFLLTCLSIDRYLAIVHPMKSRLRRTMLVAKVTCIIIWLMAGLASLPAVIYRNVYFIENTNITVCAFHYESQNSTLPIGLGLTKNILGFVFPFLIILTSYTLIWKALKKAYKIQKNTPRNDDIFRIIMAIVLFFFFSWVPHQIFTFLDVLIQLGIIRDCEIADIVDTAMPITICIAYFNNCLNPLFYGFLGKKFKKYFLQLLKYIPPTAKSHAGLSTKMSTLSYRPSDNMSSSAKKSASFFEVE
T1 sequence (P25095 whole entry): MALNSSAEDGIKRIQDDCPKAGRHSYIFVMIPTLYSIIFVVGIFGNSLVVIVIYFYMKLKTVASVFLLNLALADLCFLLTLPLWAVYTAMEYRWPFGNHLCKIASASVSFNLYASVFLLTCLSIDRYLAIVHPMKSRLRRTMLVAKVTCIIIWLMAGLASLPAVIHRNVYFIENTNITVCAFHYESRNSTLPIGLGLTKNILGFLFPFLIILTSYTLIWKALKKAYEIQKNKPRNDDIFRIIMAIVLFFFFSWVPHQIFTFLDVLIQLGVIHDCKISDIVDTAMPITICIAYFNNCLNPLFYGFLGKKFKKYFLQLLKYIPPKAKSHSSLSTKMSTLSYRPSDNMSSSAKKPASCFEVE
T1 sequence (P35351 whole entry): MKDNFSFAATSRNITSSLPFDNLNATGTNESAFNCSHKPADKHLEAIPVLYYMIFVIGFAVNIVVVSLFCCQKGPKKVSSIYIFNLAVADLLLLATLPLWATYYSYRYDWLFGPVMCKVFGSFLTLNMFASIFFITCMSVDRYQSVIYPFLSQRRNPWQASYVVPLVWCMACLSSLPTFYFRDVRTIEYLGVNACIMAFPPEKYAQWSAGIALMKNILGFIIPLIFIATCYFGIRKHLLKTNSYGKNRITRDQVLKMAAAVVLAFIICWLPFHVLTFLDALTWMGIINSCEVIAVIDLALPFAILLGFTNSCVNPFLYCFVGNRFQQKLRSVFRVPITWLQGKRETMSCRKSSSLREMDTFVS

SMILES	ID50 [1] [mg/kg]	IC50 (Angiotensin II receptor) [nM]
CCCCc1ncc(/C=C(\Cc2cccs2)C(=O)O)n1Cc1ccccc1OC	15	7350
CCCc1cccc(/C=C(\Cc2cccs2)C(=O)O)c1Cc1ccc(C(=O)O)cc1		> 10
CCCCc1ncc(C/C(=C/c2cccs2)C(=O)O)n1Cc1ccc(C(=O)O)cc1	> 3	
CCCCc1ncc(/C=C(\Cc2cccs2)C(=O)OCC)n1Cc1ccc(C(=O)OCC)cc1		1270
CCCCCCc1ncc(/C=C(\Cc2cccs2)C(=O)O)n1Cc1ccccc1Cl	5.7	123
CCCCc1ncc(/C=C(\Cc2cccs2)c2nn[nH]n2)n1Cc1cccc(Cl)c1Cl	8	1300
CCCC/C(=C\c1cnc(CCCC)n1Cc1ccc(C(=O)O)cc1)C(=O)O	0.33	
CC/C=C/c1ncc(/C=C(\Cc2cccs2)C(=O)O)n1Cc1ccccc1Cl		570
CCCCc1ncc(/C=C(\Cc2cccs2)C(=O)O)n1Cc1ccc(-c2ccccc2C(=O)O)cc1	0.62	6.6
CCCCc1ncc(/C=C(\Cc2cccs2)C(N)=O)n1Cc1ccc(C(N)=O)cc1		94.2
CCCCc1cnc(/C=C(\Cc2cccs2)C(=O)O)n1Cc1ccc(C(=O)O)cc1		248
CCCCc1ncc(/C=C(\Cc2cccs2)C(=O)O)n1Cc1ccc(-c2nn[nH]n2)cc1	0.2	0.4
CCCCc1ncc(/C=C(\Cc2cccs2)c2nn[nH]n2)n1Cc1ccccc1Cl	8	310
CCCCc1ncc(/C=C/C(=O)O)n1Cc1ccc(C(=O)O)cc1		391
CCCCc1ncc(/C=C(\Cc2cccs2)C(=O)O)n1Cc1cc(Cl)c(C(=O)O)cc1Cl	0.68	35
CCCCc1ncc(/C=C(\Cc2cccs2)C(=O)O)n1Cc1ccccc1C(F)(F)F	3.4	260
CCCCc1ncc(/C=C(\Cc2cccs2)C(=O)O)n1Cc1cccc(OC)c1[N+](=O)[O-]		130
CCCCc1ncc(/C=C(\Cc2ccccc2)C(=O)O)n1Cc1ccc(C(=O)O)cc1		4.26
CCCCc1ncc(/C=C(\Cc2cccs2)c2nn[nH]n2)n1Cc1ccccc1C(F)(F)F	8	
CCCCc1ncc(/C=C(\Cc2cccs2)c2nn[nH]n2)n1Cc1ccc(C(=O)O)cc1	0.7	0.3
CCCCc1ncc(CC(Cc2cccs2)C(=O)O)n1Cc1ccc(C(=O)O)cc1 (centres undefined)	0.24	53
CCCCc1ncc(/C=C(\Cc2cccs2)C(=O)O)n1Cc1ccccc1[N+](=O)[O-]	2.6	31
CCCCc1ncc(/C=C(/C(=O)O)C(C)(C)c2cccs2)n1Cc1ccc(C(=O)O)cc1		416
CCCCc1ncc(/C=C(\Cc2cccs2)c2nn[nH]n2)n1Cc1ccccc1[N+](=O)[O-]	3.5	230
CC(C)Cc1ncc(/C=C(\Cc2cccs2)C(=O)O)n1Cc1ccc(C(=O)O)cc1	2	163
CCCc1ncc(/C=C(\Cc2cccs2)C(=O)O)n1Cc1ccccc1Cl	8.1	127
CCCCc1ncc(/C=C(\CC2CCCS2)C(=O)O)n1Cc1ccc(C(=O)O)cc1 (centres undefined)		33.8
CCCCCCc1ncc(/C=C(\Cc2cccs2)C(=O)O)n1Cc1ccccc1[N+](=O)[O-]		43
CCCc1ncc(/C=C(\Cc2cccs2)C(=O)O)n1Cc1ccccc1[N+](=O)[O-]		15

The next lines start with the values.

ID50 [1] [mg/kg]	IC50 (Angiotensin II receptor) [nM]	SMILES
	66	CCCCc1ncc(/C=C(\Cc2cccs2)C(=O)O)n1Cc1ccc(OC)c(C)c1
0.6	0.8	CCCCCCc1ncc(/C=C(\Cc2cccs2)C(=O)O)n1Cc1ccc(C(=O)O)cc1
	39	CCCCc1ncc(/C=C(\Cc2cccs2)C(=O)O)n1Cc1ccc(C(=O)OC)cc1
0.18	2.5	CCCCc1ncc(/C=C(\Cc2cccs2)C(=O)O)n1Cc1ccc(C(=O)O)c(-c2ccccc2)c1
2.8	46	CCCCc1ncc(/C=C(\Cc2cccs2)C(=O)O)n1Cc1cccc(Cl)c1Cl
	63	CCCCc1ncc(/C=C(\Cc2cccs2)C(=O)O)n1CCc1ccc(C(=O)O)cc1
	118	CCCCc1ncc(/C=C(\Cc2cccs2)C(=O)O)n1Cc1ccc(C#N)cc1
	250	CCCCc1ncc(/C=C(\Cc2cccs2)C(=O)O)n1-c1ccc(C(=O)O)cc1
0.16	5	CCCc1ncc(/C=C(\Cc2cccs2)C(=O)O)n1Cc1ccc(C(=O)O)cc1
	33.6	CC(C)CCc1ncc(/C=C(\Cc2cccs2)C(=O)O)n1Cc1ccc(C(=O)O)cc1
	21	CCCCc1ncc(/C=C(\Cc2cccs2)C(N)=O)n1Cc1ccc(C(=O)O)cc1
	3.3	CCCCc1ncc(/C=C(\Cc2cccs2)C(=O)O)n1Cc1cccc(C(=O)O)c1
	4.81	CCCCc1ncc(/C=C(\Cc2cccs2)C(=O)NCC(=O)O)n1Cc1ccc(C(=O)O)cc1
	34	CCCCc1ncc(/C=C(\Cc2cccs2)C(=O)O)n1Cc1ccccc1O
0.12	4.6	CCCCc1ncc(/C=C(\Cc2cccs2)C(=O)O)n1Cc1ccc(C(=O)O)c(C(=O)O)c1
	4530	CCCCc1ncc(/C=C(\Cc2cccs2)C(=O)O)n1Cc1ccccc1
	0.56	CCCCc1ncc(/C=C(\Cc2cccs2)C(=O)O)n1Cc1ccc(C(N)=O)cc1

ID50 [1] [mg/kg]	IC50 (Angiotensin II receptor) [nM]	SMILES
7	210	CCCCc1ncc(/C=C(\Cc2cccs2)C(=O)O)n1Cc1cccc([N+](=O)[O-])c1
> 3	4.5	CCCCc1ncc(/C=C(\Cc2cccs2)C(=O)O)n1Cc1ccc(S(N)(=O)=O)cc1
0.24		CCCCc1ncc(/C=C(\CCc2cccs2)C(=O)O)n1Cc1ccc(C(=O)O)cc1
0.06	0.15	CCCCc1ncc(/C=C(\Cc2cccs2)C(=O)O)n1Cc1ccc(C(=O)O)cc1[N+](=O)[O-]
0.06	1.45	CCCCc1ncc(/C=C(\Cc2cccs2)C(=O)O)n1Cc1ccc(C(=O)O)cc1Cl
8	180	CCCCc1ncc(/C=C(\Cc2cccs2)C(=O)O)n1Cc1cccc(OC)c1
	21	CCCCc1ncc(/C=C(\Cc2cccs2)C(=O)O)n1Cc1ccc(O)c(C)c1
	6000	CCCCc1ncc(/C=C(\Cc2cccs2)C(=O)O)n1Cc1ccccc1C(=O)O
	620	CCCCc1ncc(/C=C(\Cc2cccs2)C(=O)O)n1Cc1ccc([N+](=O)[O-])cc1
	22	CCCCc1ncc(/C=C(\Cc2cccs2)C(=O)O)n1Cc1ccccc1C#N
0.12	1	CCCCc1ncc(/C=C(\Cc2cccs2)C(=O)O)n1Cc1ccc(C(=O)O)c(Cl)c1
	27.6	CCCCc1ncc(/C=C(\Cc2cccs2)C(=O)O)n1Cc1ccc(C(=O)OCC)cc1
0.15	0.59	CCCCc1ncc(/C=C(\Cc2cccs2)C(=O)O)n1Cc1ccc(C(=O)O)c(O)c1
3.6		CCCCc1ncc(/C=C(\Cc2cccs2)C(=O)O)n1Cc1ccccc1Cl
0.08		CCCCc1ncc(/C=C(\Cc2cccs2)C(=O)O)n1Cc1ccc(C(=O)O)cc1 (stereo in doubt; 2)
0.84	60	CCCCc1ncc(/C=C(\Cc2cccs2)C(=O)O)n1Cc1ccc(CC(=O)O)cc1
